Assay results published in US8680159B2, “Bradykinin 1 receptor modulating compounds” (Gruenenthal GmbH, priority 2010, dated 2014).

Biological target: T1, B1R receptor of the rat (CHO K1 cells stably transfected with the B1R gene of the rat) (Rattus norvegicus, UniProt P97583)
T1 construct: expressed in transfected cells; host or cells: CHO K1 cells (Chinese hamster ovary), stably transfected
T1 sequence (P97583 1-337): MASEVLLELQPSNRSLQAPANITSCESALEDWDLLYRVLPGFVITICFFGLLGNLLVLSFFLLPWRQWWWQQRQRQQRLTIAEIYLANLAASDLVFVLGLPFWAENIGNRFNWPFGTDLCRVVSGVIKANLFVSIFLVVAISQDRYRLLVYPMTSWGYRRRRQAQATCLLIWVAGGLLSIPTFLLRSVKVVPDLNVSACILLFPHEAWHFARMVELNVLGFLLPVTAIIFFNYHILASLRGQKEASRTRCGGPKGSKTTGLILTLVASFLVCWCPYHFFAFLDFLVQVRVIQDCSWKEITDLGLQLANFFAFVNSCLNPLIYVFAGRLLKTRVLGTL
Experiment: Functional study on the bradykinin receptor 1 (B1R), Ca2+ fluorescence (Fluo-4) FLIPR/Novostar assay, rB1R cells
Type: cell-based
Conditions: CHO-K1, 10 μM, read-out: % Inhibition (r-B1R) at 10 μM
In short: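 Test compounds (10 μM) were added first and the Ca2+ rise was scored as % activation against Lys-Des-Arg9-bradykinin (≥50 nM, human) or Des-Arg9-bradykinin (≥1 μM, rat). After 6-20 min, the matching agonist was given at its EC80, and % inhibition relative to maximal achievable inhibition was calculated.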

Row | Compound | inhibition at 10 µM
1 | Cc1cc(N2CCC(N(C)C(=O)c3ccc4c(c3)C(N(C)C(=O)c3c(Cl)cccc3C(F)(F)F)CC4)CC2)cc(C)n1 (stereo not drawn) [CC_H-329, 3-[[2-Chloro-6-(trifluoromethyl)-benzoyl]-methyl-amino]-N-[1-(2,6-dimethyl-pyridin-4-yl)-piperidin-4-yl]-N-methyl-2,3-dihydro-1H-indene-5-carboxylic acid amide] | 111%
2 | Cc1cc(N2CCC(N(C)C(=O)c3ccc4c(c3)C(N(C)C(=O)C3CCCCC3)CC4)CC2)cc(C)n1 (stereo not drawn) [CC_H-330, 3-(Cyclohexanecarbonyl-methyl-amino)-N-[1-(2,6-dimethyl-pyridin-4-yl)-piperidin-4-yl]-N-methyl-2,3-dihydro-1H-indene-5-carboxylic acid amide] | 111%
3 | Cc1cc(N2CCC(N(C)C(=O)c3ccc4c(c3)C(N(C)C(=O)C3CC3)CC4)CC2)cc(C)n1 (stereo not drawn) [CC_H-331, 3-(Cyclopropanecarbonyl-methyl-amino)-N-[1-(2,6-dimethyl-pyridin-4-yl)-piperidin-4-yl]-N-methyl-2,3-dihydro-1H-indene-5-carboxylic acid amide] | 104%
4 | Cc1cc(N2CCC(N(C)C(=O)c3ccc4c(c3)C(N(C)C(=O)CC(C)(C)C)CC4)CC2)cc(C)n1 (stereo not drawn) [CC_H-332, 3-(3,3-Dimethyl-butanoyl-methyl-amino)-N-[1-(2,6-dimethyl-pyridin-4-yl)-piperidin-4-yl]-N-methyl-2,3-dihydro-1H-indene-5-carboxylic acid amide] | 111%
5 | COCC(=O)N(C)C1CCc2ccc(C(=O)N(C)C3CCN(c4cc(C)nc(C)c4)CC3)cc21 (stereo not drawn) [CC_H-333, N-[1-(2,6-Dimethyl-pyridin-4-yl)-piperidin-4-yl]-3-[(2-methoxy-acetyl)-methyl-amino]-N-methyl-2,3-dihydro-1H-indene-5-carboxylic acid amide] | 84%
6 | Cc1cc(N2CCC(N(C)C(=O)c3ccc4c(c3)C(N(C)S(=O)(=O)c3c(C)cccc3Cl)CC4)CC2)cc(C)n1 (stereo not drawn) [CC_H-335, 3-[[(2-Chloro-6-methyl-phenyl)sulfonyl]-methyl-amino]-N-[1-(2,6-dimethyl-pyridin-4-yl)-piperidin-4-yl]-N-methyl-2,3-dihydro-1H-indene-5-carboxylic acid amide] | 110%
7 | Cc1cc(N2CCC(N(C)C(=O)c3ccc4c(c3)C(N(C)C(=O)Nc3ccccc3Cl)CC4)CC2)cc(C)n1 (stereo not drawn) [CC_H-336, 3-[[(2-Chlorophenyl)-carbamoyl]-methyl-amino]-N-[1-(2,6-dimethyl-pyridin-4-yl)-piperidin-4-yl]-N-methyl-2,3-dihydro-1H-indene-5-carboxylic acid amide] | 97%
8 | Cc1cc(N2CCC(N(C)C(=O)c3ccc4c(c3)C(N(C)C(=O)Nc3cccc(Cl)c3)CC4)CC2)cc(C)n1 (stereo not drawn) [CC_H-337, 3-[[(3-Chlorophenyl)-carbamoyl]-methyl-amino]-N-[1-(2,6-dimethyl-pyridin-4-yl)-piperidin-4-yl]-N-methyl-2,3-dihydro-1H-indene-5-carboxylic acid amide] | 110%
9 | Cc1cc(N2CCC(N(C)C(=O)c3ccc4c(c3)C(N(C)C(=O)Nc3cccc(Cl)c3Cl)CC4)CC2)cc(C)n1 (stereo not drawn) [CC_H-339, 3-[[(2,3-Dichloro-phenyl)-carbamoyl]-methyl-amino]-N-[1-(2,6-dimethyl-pyridin-4-yl)-piperidin-4-yl]-N-methyl-2,3-dihydro-1H-indene-5-carboxylic acid amide] | 92%
10 | Cc1cc(N2CCC(N(C)C(=O)c3ccc4c(c3)C(N(C)C(=O)Nc3cc(Cl)cc(Cl)c3)CC4)CC2)cc(C)n1 (stereo not drawn) [CC_H-341, 3-[[(3,5-Dichloro-phenyl)-carbamoyl]-methyl-amino]-N-[1-(2,6-dimethyl-pyridin-4-yl)-piperidin-4-yl]-N-methyl-2,3-dihydro-1H-indene-5-carboxylic acid amide] | 95%
11 | Cc1cc(N2CCC(N(C)C(=O)c3ccc4c(c3)C(N(C)C(=O)Nc3ccc(Cl)cc3Cl)CC4)CC2)cc(C)n1 (stereo not drawn) [CC_H-342, 3-[[(2,4-Dichlorophenyl)-carbamoyl]-methyl-amino]-N-[1-(2,6-dimethyl-pyridin-4-yl)-piperidin-4-yl]-N-methyl-2,3-dihydro-1H-indene-5-carboxylic acid amide] | 107%
12 | Cc1cc(N2CCC(N(C)C(=O)c3ccc4c(c3)C(N(C)C(=O)Nc3cc(C(F)(F)F)ccc3Cl)CC4)CC2)cc(C)n1 (stereo not drawn) [CC_H-343, 3-[[[2-Chloro-5-(trifluoromethyl)-phenyl]-carbamoyl]-methyl-amino]-N-[1-(2,6-dimethyl-pyridin-4-yl)-piperidin-4-yl]-N-methyl-2,3-dihydro-1H-indene-5-carboxylic acid amide] | 67%
13 | Cc1cc(N2CCC(N(C)C(=O)c3ccc4c(c3)C(N(C)C(=O)Nc3ccc(Cl)cc3C(F)(F)F)CC4)CC2)cc(C)n1 (stereo not drawn) [CC_H-344, 3-[[[4-Chloro-2-(trifluoromethyl)-phenyl]-carbamoyl]-methyl-amino]-N-[1-(2,6-dimethyl-pyridin-4-yl)-piperidin-4-yl]-N-methyl-2,3-dihydro-1H-indene-5-carboxylic acid amide] | 90%
14 | Cc1cc(N2CCC(N(C)C(=O)c3ccc4c(c3)C(N(C)C(=O)Nc3ccc(F)c(Cl)c3)CC4)CC2)cc(C)n1 (stereo not drawn) [CC_H-346, 3-[[(3-Chloro-4-fluoro-phenyl)-carbamoyl]-methyl-amino]-N-[1-(2,6-dimethyl-pyridin-4-yl)-piperidin-4-yl]-N-methyl-2,3-dihydro-1H-indene-5-carboxylic acid amide] | 70%
15 | Cc1ccc(NC(=O)N(C)C2CCc3ccc(C(=O)N(C)C4CCN(c5cc(C)nc(C)c5)CC4)cc32)c(C)c1 (stereo not drawn) [CC_H-347, 3-[[(2,4-Dimethyl-phenyl)-carbamoyl]-methyl-amino]-N-[1-(2,6-dimethyl-pyridin-4-yl)-piperidin-4-yl]-N-methyl-2,3-dihydro-1H-indene-5-carboxylic acid amide] | 57%
16 | Cc1cc(N2CCC(N(C)C(=O)c3ccc4c(c3)C(N(C)C(=O)N(C)c3ccccc3Cl)CC4)CC2)cc(C)n1 (stereo not drawn) [CC_H-349, 3-[[(2-Chlorophenyl)-methyl-carbamoyl]-methyl-amino]-N-[1-(2,6-dimethyl-pyridin-4-yl)-piperidin-4-yl]-N-methyl-2,3-dihydro-1H-indene-5-carboxylic acid amide] | 80%
17 | Cc1cc(N2CCC(N(C)C(=O)c3ccc4c(c3)C(N(C)C(=O)N(C)c3ccc(Cl)cc3Cl)CC4)CC2)cc(C)n1 (stereo not drawn) [CC_H-350, 3[[(2,4-Dichlorophenyl)-methyl-carbamoyl]-methyl-amino]-N-[1-(2,6-dimethyl-pyridin-4-yl)-piperidin-4-yl]-N-methyl-2,3-dihydro-1H-indene-5-carboxylic acid amide] | 108%
18 | Cc1cc(N2CCC(N(C)C(=O)c3ccc4c(c3)C(N(C)C(=O)CC(C)C)CC4)CC2)cc(C)n1 (stereo not drawn) [CC_H-352, N-[1-(2,6-Dimethyl-pyridin-4-yl)-piperidin-4-yl]-N-methyl-3-[methyl-(3-methyl-butanoyl)-amino]-2,3-dihydro-1H-indene-5-carboxylic acid amide] | 110%
19 | CCCC(=O)N(C)C1CCc2ccc(C(=O)N(C)C3CCN(c4cc(C)nc(C)c4)CC3)cc21 (stereo not drawn) [CC_H-353, 3-(Butanoyl-methyl-amino)-N-[1-(2,6-dimethyl-pyridin-4-yl)-piperidin-4-yl]-N-methyl-2,3-dihydro-1H-indene-5-carboxylic acid amide] | 84%
20 | Cc1cc(N2CCC(N(C)C(=O)c3ccc4c(c3)C(N(C)C(=O)CCC3CCCC3)CC4)CC2)cc(C)n1 (stereo not drawn) [CC_H-354, 3-(3-Cyclopentyl-propanoyl-methyl-amino)-N-[1-(2,6-dimethyl-pyridin-4-yl)-piperidin-4-yl]-N-methyl-2,3-dihydro-1H-indene-5-carboxylic acid amide] | 110%
21 | Cc1cc(N2CCC(N(C)C(=O)c3ccc4c(c3)C(N(C)S(=O)(=O)Cc3cccc(C(F)(F)F)c3)CC4)CC2)cc(C)n1 (stereo not drawn) [CC_H-355, N-[1-(2,6-Dimethyl-pyridin-4-yl)-piperidin-4-yl]-N-methyl-3-[methyl-[[3-(trifluoromethyl)phenyl]-methylsulfonyl]-amino]-2,3-dihydro-1H-indene-5-carboxylic acid amide] | 96%
22 | CN(C(=O)c1ccc2c(c1)C(NC(=O)c1cc(F)ccc1Cl)CC2)C1CCN(c2ccc3cnccc3c2)CC1 (stereo not drawn) [CC_H-356, 3-[(2-Chloro-5-fluoro-benzoyl)amino]-N-(1-isoquinolin-6-yl-piperidin-4-yl)-N-methyl-2,3-dihydro-1H-indene-5-carboxylic acid amide] | 109%
23 | CN(C(=O)c1ccc2c(c1)C(NC(=O)c1cc(C(F)(F)F)ccc1Cl)CC2)C1CCN(c2ccc3cnccc3c2)CC1 (stereo not drawn) [CC_H-357, 3-[[2-Chloro-5-(trifluoromethyl)-benzoyl]amino]-N-(1-isoquinolin-6-yl-piperidin-4-yl)-N-methyl-2,3-dihydro-1H-indene-5-carboxylic acid amide] | 110%
24 | Cc1ccc(F)c(C(=O)NC2CCc3ccc(C(=O)N(C)C4CCN(c5ccc6cnccc6c5)CC4)cc32)c1Cl (stereo not drawn) [CC_H-358, 3-[(2-Chloro-6-fluoro-3-methyl-benzoyl)amino]-N-(1-isoquinolin-6-yl-piperidin-4-yl)-N-methyl-2,3-dihydro-1H-indene-5-carboxylic acid amide] | 111%
